Source: patent US11179391B2, “Compound with kinase inhibitory activity and preparation method and use thereof” (priority 2017, dated 2021)

Tests used:
[1] = test system: Human breast cancer MDA-MB-361 cells; assay: Pharmacodynamic study on mouse MDA-MB-361 model (subcutaneous xenograft); type: in vivo, SCID Beige mice; settings: for inhibitory effect on the tumor growth (in words): 15 mg/kg, continuous PO administration for 28 days; for Tumor volume (day 0): baseline at start of dosing; for Tumor volume (day 0) / Tumor volume (day 28) / T/C relative tumor proliferation rate / TGI tumor growth inhibition: methanesulfonic acid salt, 15 mg/kg PO × 28 days; for T/C relative tumor proliferation rate / TGI tumor growth inhibition: day 28
[2] = test system: Human colorectal cancer Colo-205 cells; assay: Pharmacodynamic study on mouse Colo-205 model (subcutaneous xenograft); type: in vivo, BALB/c nude mice
Text: BALB/c nude mice, 6-8 weeks old, weighing 12-14 g, female, provided by Shanghai Lab Animal Research Center (Shanghai Xipuer-Beikai) with an animal certificate No: 2008001682093.
The experiment was started after 3-7 days in the experimental environment when the animals arrived. Animals were housed in IVC (independent air supply system) cages (Four animals per cage) in SPF grade experimental animal facilities. Each cage animal information card contained the number of animals in the cage, sex, strain, receiving date, dosing schedule, experiment number, group and start date of the experiment. All cages, bedding, and drinking water were sterilized before use and were updated twice a week.
4.3 Tumor Cell Inoculation Method
Human colorectal cancer Colo-205 cells (ATCC-CCL-222) were cultured in vitro in monolayer under the conditions of RPMI 1640 medium with 10% fetal bovine serum, 100 U/mL penicillin and 100 μg/mL streptomycin, and 37° C. 5% CO2 incubator. The passage was routinely digested with trypsin-EDTA twice a week. When the cell saturation was up to 80%-90% and reached the requirement, the cells were collected, counted and inoculated. 0.2 mL (5×10^6) Colo-205 cells were subcutaneously inoculated on the right back of each mouse, and mice were randomly grouped and dosed when the average tumor volume reached 163 mm^3.
4.14 mL of lactic acid was added to a large beaker containing 800 mL of deionized water, and the pH was adjusted to 4.0 with 5 N NaOH. Then the volume was fixed to 1,000 mL to obtain 50 mmol/L sodium lactate buffer.
The subcutaneous tumor volume of nude mice was measured 2-3 times a week, and the mice were weighed, and the data were recorded.
4.6 Analysis and Evaluation
Experimental evaluation index: the tumor growth inhibition rate TGI (%) or the relative tumor proliferation rate T/C (%) was used for evaluation, wherein T was the experimental group, and C was the vehicle group.

[3] = Colo-205 model, mesylate, 50 mg/kg PO × 28 days, day 28

| SMILES | inhibitory effect on the tumor growth (in words) [1] | Tumor volume (day 0) [1] [mm^3] | Tumor volume (day 28) [1] [mm^3] | T/C relative tumor proliferation rate [1] [%] | TGI tumor growth inhibition [1] [%] | Tumor volume (day 0) ([2]; Colo-205 model, baseline at start of dosing, mesylate, 50 mg/kg PO × 28 days) [mm^3] | antitumor effect compared with Abemaciclib (in words) ([2]; Colo-205 model, same dosage (50 mg/kg PO × 28 days)) | Tumor volume (day 28) ([2]; Colo-205 model, mesylate, 50 mg/kg PO × 28 days) [mm^3] | T/C relative tumor proliferation rate [2, 3] [%] | TGI tumor growth inhibition rate [2, 3] [%] | inhibitory effect on the tumor growth (in words) ([2]; Colo-205 nude mouse model, 50 mg/kg, continuous PO administration for 28 days) |
| --- | --- | --- | --- | --- | --- | --- | --- | --- | --- | --- | --- |
| CCN1CCC(=Cc2ccc(Nc3ncc(F)c(-c4cc(F)c5nc(C)n(C(C)C)c5c4)n3)nc2)CC1 [Example 57, N-(5-((1-ethylpiperidin-4-ylidene)methyl)pyridin-2-yl)-5-fluoro-4-(4-fluoro-1-isopropyl-2-methyl-1H-benzo[d]imidazol-6-yl)pyrimidin-2-amine] | very strong inhibitory effect | 175 | 99 | −43 | 143 | – | – | – | – | – | – |
| CCN1CCC(C(C)c2ccc(Nc3ncc(F)c(-c4cc(F)c5nc(C)n(C(C)C)c5c4)n3)nc2)CC1 (single isomer, unassigned) [Example 17, (R or S)—N-(5-(1-(1-ethylpiperidin-4-yl)ethyl)pyridin-2-yl)-5-fluoro-4-(4-fluoro-1-isopropyl-2-methyl-1H-benzo[d]imidazol-6-yl) pyrimidin-2-amine] | very strong inhibitory effect | 175 | 90 | −49 | 149 | 198 | better antitumor effect than positive control compound Abemaciclib | 591 | 18.2 | 81.8 | strong inhibitory effect |
